Data: ChEMBL document CHEMBL1201862, “PubChem BioAssay data set” (2004)
Calls of active or inactive are those of the source.

Tests used:
[1] = target: T1, Eukaryotic translation initiation factor 4H (Homo sapiens, UniProt Q15056); assay: human eIF4H binding inhibitors, primary screen, translation initiation inhibitor project, biochemical, uHTS, fluorescence polarization (AID 2012)
[2] = target: T2, Polyadenylate-binding protein 1 (Homo sapiens, UniProt P11940); assay: PABP poly(A) RNA binding inhibitors, primary screen, biochemical, fluorescence polarization, uHTS (AID 2014)
[3] = target: T1, Eukaryotic translation initiation factor 4H; assay: eIF4H inhibition in translation initiation, SAR follow-up (AID 435011); type: functional
[4] = target: T2, Polyadenylate-binding protein 1; assay: PABP inhibition in translation initiation, SAR follow-up (AID 435018); type: functional
[5] = test system: Vero; assay: Vero E6 cell cytotoxicity, SAR follow-up, cytotoxicity control for West Nile virus antiviral project, synthesized analogs (AID 2244); type: functional; conditions: Chlorocebus sabaeus
[6] = target: T3, Aspartyl aminopeptidase (Plasmodium falciparum 3D7, UniProt Q8I2J3)
T3 sequence (Q8I2J3 whole entry): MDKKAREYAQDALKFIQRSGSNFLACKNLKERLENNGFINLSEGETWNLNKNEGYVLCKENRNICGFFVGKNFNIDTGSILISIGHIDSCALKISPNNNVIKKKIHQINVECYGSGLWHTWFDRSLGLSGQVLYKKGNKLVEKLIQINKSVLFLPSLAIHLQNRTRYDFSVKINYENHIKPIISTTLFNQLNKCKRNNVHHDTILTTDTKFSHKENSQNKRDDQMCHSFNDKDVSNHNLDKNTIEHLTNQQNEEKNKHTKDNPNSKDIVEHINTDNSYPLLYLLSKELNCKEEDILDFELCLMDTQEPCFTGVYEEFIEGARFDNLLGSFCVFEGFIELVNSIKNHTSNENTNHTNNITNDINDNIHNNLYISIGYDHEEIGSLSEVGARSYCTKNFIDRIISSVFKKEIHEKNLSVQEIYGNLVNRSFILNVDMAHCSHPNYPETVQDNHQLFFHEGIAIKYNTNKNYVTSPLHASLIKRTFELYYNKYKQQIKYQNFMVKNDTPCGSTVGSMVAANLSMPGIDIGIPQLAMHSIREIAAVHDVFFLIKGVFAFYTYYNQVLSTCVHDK

[7] = target: Procathepsin L (Homo sapiens, UniProt P07711)
[8] = test system: Staphylococcus aureus; assay: Inhibitors of Bacterial Quorum Sensing Structure Activity Relationship (SAR) Analysis: Dose Response Assay. [Related pubchem assays: 700, 527 ]; type: functional, organism-based
[9] = target: G-protein coupled receptor 35 (Homo sapiens, UniProt Q9HC97); assay: GPR35 antagonists blocking zaprinast-driven arrestin recruitment, primary screen, imaging, U2OS, beta-arrestin-GFP, zaprinast agonist (AID 2058); type: functional;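 further: antagonist potency meaning inhibition of agonist-induced arrestin redistribution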
[10] = target: Serine/threonine-protein phosphatase PP1-alpha catalytic subunit (Homo sapiens, UniProt P62136); assay: PP1 phosphatase inhibitors, dose response, biochemical, fluorescence (AID 2403);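 further: phosphatase turnover of OMFP into fluorescent 3-O-methylfluorescein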
[11] = target: Serine/threonine-protein phosphatase (Homo sapiens, UniProt Q9BPW0); assay: Counterscreen for inhibitors of PP1: fluorescence-based biochemical high throughput dose response assay to identify inhibitors of Protein Phosphatase 5 (PP5). [Related pubchem assays: 2034 (Summary (PP5 inhibitors)), 1987 (PP5 inhibitors in singlate), 2235 (PP1 inhibitors in singlate)]
[12] = target: T4, Replicative DNA helicase DnaB (Mycobacterium tuberculosis, UniProt P9WMR3); assay: DnaB intein splicing inhibitors, dose response, biochemical, cell-free fluorescence (AID 449749); type: functional
T4 sequence (P9WMR3 whole entry): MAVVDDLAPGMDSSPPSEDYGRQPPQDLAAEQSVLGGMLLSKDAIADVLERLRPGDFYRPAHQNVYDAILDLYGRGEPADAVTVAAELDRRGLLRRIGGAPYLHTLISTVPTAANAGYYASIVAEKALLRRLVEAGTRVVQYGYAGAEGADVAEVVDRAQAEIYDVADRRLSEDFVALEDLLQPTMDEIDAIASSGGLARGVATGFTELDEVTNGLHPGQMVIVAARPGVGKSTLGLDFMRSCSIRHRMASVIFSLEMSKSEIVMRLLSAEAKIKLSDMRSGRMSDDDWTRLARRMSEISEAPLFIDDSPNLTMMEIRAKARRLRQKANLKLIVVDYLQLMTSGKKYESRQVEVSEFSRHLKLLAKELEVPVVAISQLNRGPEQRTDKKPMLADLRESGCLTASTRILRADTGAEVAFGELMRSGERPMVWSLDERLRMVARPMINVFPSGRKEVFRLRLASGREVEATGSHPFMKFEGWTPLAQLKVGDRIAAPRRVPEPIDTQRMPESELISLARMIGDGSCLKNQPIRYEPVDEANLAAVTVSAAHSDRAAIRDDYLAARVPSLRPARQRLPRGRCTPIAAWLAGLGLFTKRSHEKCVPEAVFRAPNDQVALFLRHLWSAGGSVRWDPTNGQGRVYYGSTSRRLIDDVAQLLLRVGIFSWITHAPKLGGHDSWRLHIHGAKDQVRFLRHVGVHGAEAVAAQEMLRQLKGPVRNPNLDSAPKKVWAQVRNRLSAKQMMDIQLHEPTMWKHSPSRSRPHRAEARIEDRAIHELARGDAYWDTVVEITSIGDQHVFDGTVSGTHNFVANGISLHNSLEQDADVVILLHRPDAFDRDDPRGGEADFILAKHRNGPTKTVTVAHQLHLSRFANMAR

[13] = target: T5, Protein RecA (Mycobacterium tuberculosis, UniProt P9WHJ3); assay: Fluorescence Cell-Free Homogeneous Dose Retest to Identify Inhibitors of RecA-Intein Splicing Activity. [Related pubchem assays (depositor defined):AID2097, AID2223, AID489010, AID492950]; type: functional
T5 sequence (P9WHJ3 whole entry): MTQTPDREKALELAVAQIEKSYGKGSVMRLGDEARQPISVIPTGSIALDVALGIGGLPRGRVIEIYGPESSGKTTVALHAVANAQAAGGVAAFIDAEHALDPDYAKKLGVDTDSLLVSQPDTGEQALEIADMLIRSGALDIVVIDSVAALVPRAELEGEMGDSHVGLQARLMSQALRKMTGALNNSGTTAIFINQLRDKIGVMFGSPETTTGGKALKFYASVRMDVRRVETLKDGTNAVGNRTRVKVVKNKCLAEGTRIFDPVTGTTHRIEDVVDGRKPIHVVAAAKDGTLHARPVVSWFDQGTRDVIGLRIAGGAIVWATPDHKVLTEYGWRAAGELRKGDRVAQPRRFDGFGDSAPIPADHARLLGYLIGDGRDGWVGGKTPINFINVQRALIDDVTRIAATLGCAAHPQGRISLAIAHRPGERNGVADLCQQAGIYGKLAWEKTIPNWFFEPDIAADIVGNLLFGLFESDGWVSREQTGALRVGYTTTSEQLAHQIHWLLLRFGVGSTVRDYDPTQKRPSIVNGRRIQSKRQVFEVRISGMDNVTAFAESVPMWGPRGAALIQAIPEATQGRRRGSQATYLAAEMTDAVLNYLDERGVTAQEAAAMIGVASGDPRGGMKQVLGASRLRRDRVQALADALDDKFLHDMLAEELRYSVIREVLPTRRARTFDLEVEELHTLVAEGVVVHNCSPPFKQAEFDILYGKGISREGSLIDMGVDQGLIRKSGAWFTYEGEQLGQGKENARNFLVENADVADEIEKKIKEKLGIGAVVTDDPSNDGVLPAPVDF

[14] = target: Genome polyprotein (dengue virus type 2, UniProt P29990); assay: Dengue-2 NS5 methyltransferase inhibitors, primary screen, biochemical, confirmation dose response (AID 588689); type: functional
[15] = target: Dual specificity tyrosine-phosphorylation-regulated kinase 1A (Rattus norvegicus, UniProt Q63470); type: biochemical, Homo sapiens
[16] = target: Transitional endoplasmic reticulum ATPase (Homo sapiens, UniProt P55072, C522A); assay: C522A mutant p97 ATPase inhibitors, dose response, counter-screen for p97 inhibitor project, biochemical, luminescence (AID 1544)
[17] = target: Transitional endoplasmic reticulum ATPase (Homo sapiens, UniProt P55072); assay: p97 ATPase inhibitors, dose response, biochemical (AID 1534)
[18] = inhibitors of Bluetongue virus cytopathic effect, confirmation, arbovirus, BSR cells (AID 1250); type: functional;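 further: protection from viral cytopathic effect measured as cell viability by ATP luminescence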
[19] = target: Heat shock protein HSP 90-alpha (Homo sapiens, UniProt P07900); type: functional, organism-based
[20] = target: Acyl-homoserine lactone acylase PvdQ (Pseudomonas aeruginosa (strain LESB58), UniProt Q9I194); assay: P. aeruginosa PvdQ acylase inhibitors, dose response, biochemical, fluorescence, plate reader and imaging, cherry-picks (AID 493231)
[21] = target: Chaperone protein dnaK (Escherichia coli, UniProt C3TRK2); assay: DnaK beta-domain binding affinity, SAR follow-up, orthogonal assay for DnaK modulator project, biophysical, isothermal titration calorimetry, full-length DnaK (AID 1495)
[22] = target: T6, Tyrosine-protein phosphatase non-receptor type 7 (Homo sapiens, UniProt P35236); type: functional
T6 sequence (P35236 whole entry): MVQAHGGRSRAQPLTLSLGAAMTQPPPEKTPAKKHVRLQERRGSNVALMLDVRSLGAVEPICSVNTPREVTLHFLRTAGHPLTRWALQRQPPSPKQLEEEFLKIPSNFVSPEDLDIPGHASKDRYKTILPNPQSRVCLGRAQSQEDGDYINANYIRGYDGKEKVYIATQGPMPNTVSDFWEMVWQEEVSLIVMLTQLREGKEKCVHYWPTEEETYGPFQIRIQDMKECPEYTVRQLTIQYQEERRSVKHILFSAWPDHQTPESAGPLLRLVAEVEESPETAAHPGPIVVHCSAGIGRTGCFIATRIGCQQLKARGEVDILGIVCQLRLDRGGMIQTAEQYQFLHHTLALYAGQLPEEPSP

[23] = target: Glyceraldehyde-3-phosphate dehydrogenase (Homo sapiens, UniProt P04406)
[24] = target: Heat shock cognate 71 kDa protein (Homo sapiens, UniProt P11142); assay: In Vitro Hsc70 Dose Response Fluorescence Polarization Assay. [Related pubchem assays: 1072 ]
[25] = target: Heat shock 70 kDa protein 1A (Homo sapiens, UniProt P0DMV8); assay: Hsp70 inhibitors, SAR follow-up, biochemical, fluorescence polarization (AID 1072)
[26] = target: T7, Dual specificity protein phosphatase 6 (Rattus norvegicus, UniProt Q64346)
T7 sequence (Q64346 whole entry): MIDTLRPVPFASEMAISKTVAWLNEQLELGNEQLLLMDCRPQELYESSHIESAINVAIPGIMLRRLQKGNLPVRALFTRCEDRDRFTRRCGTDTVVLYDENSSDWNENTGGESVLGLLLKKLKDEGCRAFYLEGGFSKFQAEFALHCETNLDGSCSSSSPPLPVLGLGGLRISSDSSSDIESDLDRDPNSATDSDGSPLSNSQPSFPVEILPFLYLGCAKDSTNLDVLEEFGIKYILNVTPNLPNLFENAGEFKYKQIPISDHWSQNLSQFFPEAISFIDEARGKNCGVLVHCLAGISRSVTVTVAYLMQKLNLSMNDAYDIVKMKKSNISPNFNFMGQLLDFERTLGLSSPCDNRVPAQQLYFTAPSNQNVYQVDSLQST

[27] = target: T8, Alkaline phosphatase, tissue-nonspecific isozyme (Homo sapiens, UniProt P05186); assay: human TNAP enzyme inhibitors, SAR follow-up, biochemical, luminescent, dose response (AID 1056)
T8 sequence (P05186 whole entry): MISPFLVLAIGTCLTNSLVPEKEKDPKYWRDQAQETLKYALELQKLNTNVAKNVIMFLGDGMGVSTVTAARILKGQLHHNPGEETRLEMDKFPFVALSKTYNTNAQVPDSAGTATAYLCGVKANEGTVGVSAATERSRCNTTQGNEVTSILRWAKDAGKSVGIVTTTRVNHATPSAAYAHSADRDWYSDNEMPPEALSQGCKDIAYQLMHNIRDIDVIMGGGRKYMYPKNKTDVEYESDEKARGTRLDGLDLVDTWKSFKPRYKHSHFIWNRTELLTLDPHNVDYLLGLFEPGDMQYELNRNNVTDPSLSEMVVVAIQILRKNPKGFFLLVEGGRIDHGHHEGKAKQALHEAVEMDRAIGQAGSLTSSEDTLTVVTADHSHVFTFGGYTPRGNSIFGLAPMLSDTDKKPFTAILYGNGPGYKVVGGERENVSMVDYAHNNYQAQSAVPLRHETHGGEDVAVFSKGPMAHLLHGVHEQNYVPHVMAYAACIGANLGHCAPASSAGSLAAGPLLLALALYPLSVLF

[28] = target: T7, Dual specificity protein phosphatase 6; type: functional
[29] = target: Cyclin-dependent kinase 5/CDK5 activator 1 (Homo sapiens, UniProt Q00535); assay: CDK5/p35 kinase inhibitors, dose response, biochemical, cherry-picked samples, set 2 (AID 504545)
Cyclin-dependent kinase 5/CDK5 activator 1, sequence (Q00535 whole entry): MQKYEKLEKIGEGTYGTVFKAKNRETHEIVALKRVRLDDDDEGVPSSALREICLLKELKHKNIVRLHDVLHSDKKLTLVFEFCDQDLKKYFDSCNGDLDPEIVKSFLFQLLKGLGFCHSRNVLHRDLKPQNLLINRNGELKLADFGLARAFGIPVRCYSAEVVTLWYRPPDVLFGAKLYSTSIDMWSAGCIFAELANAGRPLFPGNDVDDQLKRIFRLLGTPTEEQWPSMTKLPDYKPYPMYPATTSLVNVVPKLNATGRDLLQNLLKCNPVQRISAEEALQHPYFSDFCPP
Cyclin-dependent kinase 5/CDK5 activator 1, sequence (Q15078 whole entry, further chain): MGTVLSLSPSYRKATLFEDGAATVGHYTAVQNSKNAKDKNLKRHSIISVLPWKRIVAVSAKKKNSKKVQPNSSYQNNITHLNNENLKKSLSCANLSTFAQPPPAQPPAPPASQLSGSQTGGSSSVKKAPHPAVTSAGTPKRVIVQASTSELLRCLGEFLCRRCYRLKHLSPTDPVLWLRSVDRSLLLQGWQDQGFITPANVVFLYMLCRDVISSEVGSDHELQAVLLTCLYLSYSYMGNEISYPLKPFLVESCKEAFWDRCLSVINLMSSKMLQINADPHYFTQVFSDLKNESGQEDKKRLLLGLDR

T2 sequence (P11940 whole entry): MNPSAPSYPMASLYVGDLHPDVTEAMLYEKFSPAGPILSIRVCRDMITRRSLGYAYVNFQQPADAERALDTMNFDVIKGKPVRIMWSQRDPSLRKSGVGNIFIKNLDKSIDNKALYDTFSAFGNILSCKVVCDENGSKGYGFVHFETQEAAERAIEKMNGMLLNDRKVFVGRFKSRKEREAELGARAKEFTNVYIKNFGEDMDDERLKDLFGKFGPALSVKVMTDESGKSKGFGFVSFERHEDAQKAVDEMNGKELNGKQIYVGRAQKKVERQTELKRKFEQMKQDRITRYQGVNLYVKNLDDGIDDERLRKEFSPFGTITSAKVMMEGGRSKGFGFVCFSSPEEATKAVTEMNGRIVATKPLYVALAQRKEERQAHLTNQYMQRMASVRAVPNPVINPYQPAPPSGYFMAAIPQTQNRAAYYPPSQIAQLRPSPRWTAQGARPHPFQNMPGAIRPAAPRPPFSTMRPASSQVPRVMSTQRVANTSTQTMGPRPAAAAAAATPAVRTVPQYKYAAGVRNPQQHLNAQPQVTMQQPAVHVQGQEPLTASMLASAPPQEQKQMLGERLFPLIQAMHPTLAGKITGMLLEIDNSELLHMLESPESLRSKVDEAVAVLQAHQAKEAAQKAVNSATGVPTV
Serine/threonine-protein phosphatase, sequence (Q9BPW0 whole entry): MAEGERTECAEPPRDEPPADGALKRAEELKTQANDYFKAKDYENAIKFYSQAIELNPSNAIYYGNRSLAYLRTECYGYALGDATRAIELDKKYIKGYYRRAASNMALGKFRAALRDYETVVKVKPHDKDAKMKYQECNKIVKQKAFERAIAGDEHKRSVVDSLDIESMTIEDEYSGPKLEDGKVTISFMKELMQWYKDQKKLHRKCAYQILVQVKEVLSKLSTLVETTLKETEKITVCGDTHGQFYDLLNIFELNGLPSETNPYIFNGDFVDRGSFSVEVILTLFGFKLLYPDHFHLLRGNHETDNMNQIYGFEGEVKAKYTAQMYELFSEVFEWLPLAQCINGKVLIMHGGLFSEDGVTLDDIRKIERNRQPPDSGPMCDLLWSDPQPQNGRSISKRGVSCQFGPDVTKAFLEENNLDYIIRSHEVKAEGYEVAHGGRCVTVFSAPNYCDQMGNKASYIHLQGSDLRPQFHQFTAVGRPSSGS
Genome polyprotein, sequence (P29990 2492-3391 limits assumed): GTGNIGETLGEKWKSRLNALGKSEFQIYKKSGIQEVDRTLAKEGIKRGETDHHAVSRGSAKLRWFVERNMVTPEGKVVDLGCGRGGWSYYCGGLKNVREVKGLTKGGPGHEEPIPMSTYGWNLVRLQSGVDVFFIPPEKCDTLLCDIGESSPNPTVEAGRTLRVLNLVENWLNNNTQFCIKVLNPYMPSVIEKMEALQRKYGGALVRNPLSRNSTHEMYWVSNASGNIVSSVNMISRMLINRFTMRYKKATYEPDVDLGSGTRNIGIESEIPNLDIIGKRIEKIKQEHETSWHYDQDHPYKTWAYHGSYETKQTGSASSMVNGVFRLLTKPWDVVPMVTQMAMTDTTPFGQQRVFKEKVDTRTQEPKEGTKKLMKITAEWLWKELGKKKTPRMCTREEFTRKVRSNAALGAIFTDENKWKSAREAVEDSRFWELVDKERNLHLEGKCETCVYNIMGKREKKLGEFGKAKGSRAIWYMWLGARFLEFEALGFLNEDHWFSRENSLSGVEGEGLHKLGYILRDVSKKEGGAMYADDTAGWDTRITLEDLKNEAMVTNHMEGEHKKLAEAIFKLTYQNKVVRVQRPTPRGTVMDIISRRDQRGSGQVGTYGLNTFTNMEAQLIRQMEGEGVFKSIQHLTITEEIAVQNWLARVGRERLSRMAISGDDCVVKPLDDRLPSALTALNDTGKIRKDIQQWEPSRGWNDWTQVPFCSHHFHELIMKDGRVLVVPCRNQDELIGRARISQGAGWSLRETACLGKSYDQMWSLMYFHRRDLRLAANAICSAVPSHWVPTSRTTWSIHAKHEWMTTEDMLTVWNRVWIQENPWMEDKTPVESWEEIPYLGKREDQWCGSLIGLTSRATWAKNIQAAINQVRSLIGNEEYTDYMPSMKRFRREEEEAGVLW
Chaperone protein dnaK, sequence (C3TRK2 whole entry): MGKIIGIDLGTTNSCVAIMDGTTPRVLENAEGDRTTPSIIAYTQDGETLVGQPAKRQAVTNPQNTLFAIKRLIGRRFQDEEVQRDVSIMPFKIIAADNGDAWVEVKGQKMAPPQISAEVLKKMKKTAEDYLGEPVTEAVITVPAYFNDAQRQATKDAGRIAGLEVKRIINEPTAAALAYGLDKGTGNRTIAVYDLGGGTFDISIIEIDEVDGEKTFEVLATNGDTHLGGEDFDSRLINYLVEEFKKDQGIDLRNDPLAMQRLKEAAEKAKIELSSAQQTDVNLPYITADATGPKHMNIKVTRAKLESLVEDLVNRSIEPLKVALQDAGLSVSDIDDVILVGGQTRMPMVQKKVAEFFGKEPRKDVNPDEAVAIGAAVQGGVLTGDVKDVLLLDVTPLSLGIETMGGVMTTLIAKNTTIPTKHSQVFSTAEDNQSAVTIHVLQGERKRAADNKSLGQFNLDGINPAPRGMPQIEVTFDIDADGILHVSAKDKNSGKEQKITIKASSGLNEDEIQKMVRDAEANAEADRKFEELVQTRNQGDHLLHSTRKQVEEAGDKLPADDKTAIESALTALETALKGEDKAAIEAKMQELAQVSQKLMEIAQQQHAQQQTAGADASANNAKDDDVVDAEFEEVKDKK
G-protein coupled receptor 35, sequence (Q9HC97 whole entry): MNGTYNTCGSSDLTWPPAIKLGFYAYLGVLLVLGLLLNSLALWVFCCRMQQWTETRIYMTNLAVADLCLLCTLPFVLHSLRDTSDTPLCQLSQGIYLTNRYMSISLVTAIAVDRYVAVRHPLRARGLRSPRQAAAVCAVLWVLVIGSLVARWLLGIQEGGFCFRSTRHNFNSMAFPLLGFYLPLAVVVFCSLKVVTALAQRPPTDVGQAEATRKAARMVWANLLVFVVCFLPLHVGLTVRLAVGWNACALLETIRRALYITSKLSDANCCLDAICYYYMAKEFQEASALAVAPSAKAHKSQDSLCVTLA
Heat shock cognate 71 kDa protein, sequence (P11142 whole entry): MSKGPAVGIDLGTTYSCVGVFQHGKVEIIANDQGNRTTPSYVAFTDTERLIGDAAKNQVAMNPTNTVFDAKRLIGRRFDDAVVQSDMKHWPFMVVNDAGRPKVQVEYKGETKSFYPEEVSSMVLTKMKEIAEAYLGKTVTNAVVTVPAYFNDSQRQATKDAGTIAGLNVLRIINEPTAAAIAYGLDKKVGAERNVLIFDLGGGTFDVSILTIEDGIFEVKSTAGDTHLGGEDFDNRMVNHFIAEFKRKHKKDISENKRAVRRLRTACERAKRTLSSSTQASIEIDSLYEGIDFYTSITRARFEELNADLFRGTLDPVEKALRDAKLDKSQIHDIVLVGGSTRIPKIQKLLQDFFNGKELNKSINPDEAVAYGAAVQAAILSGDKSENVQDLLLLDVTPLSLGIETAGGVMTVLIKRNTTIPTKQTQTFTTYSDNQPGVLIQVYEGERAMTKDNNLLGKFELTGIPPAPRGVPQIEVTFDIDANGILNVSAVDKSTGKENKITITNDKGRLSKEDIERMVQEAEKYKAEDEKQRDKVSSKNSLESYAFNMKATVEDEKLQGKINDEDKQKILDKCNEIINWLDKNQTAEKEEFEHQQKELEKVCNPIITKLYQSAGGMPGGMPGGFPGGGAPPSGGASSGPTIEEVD
Glyceraldehyde-3-phosphate dehydrogenase, sequence (P04406 whole entry): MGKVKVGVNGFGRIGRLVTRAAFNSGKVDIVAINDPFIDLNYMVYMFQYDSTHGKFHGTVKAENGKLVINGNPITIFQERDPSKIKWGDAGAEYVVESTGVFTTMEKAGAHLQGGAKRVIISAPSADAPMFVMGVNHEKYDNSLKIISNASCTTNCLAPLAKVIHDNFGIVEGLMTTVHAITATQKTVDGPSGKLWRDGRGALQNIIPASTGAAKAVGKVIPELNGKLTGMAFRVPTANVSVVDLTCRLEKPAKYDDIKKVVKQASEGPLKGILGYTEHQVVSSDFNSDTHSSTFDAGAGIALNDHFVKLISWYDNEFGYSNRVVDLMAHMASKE

Compound: CCn1c(=O)n(CC)c2cc(NC(=O)C(C)c3ccccc3)c(Br)cc21 (centres undefined)
- IC50 [1]: > 100 µM (inactive)
- IC50 [2]: 21.5 µM (active)
- IC50 [3]: > 100 µM (inactive)
- IC50 [4]: 9.4 µM (active)

Compound: O=C(Nc1nc(-c2ccccc2)cs1)c1ccccc1Cl
- CC50 [5]: 14 µM (active)

Compound: O=C(Nn1cnnc1)c1ccccc1-c1ccccc1
- IC50 [6]: 2.89 µM (active)
- IC50 [7]: > 59.6 µM (not active)

Compound: CC1CCCN(C(C(=O)Nc2ccc3c(c2)OCCO3)c2ccccc2)C1 (centres undefined)
- IC50 [8]: 0.125 µM (active)

Compound: CN1CC=C2C(C#N)=C(N)C(C#N)(C#N)C(c3ccsc3)C2C1 (centres undefined)
- IC50 [9]: 0.991 µM (active)

Compound: O=C(O)CC1OCC=C2CN3CCC45C6=CC(=O)C(O)=C([N+](=O)[O-])C6=NC4C1C2CC35 (centres undefined)
- IC50 [10]: 1.97 µM (active)
- IC50 [11]: > 0.276 µM (active)
- AC50 [12]: 6.67 µM (active)
- EC50 [13]: 7.02 µM (active)
- IC50 [14]: > 100 µM (active)
- AC50 [15]: 3.17 µM (active)

Compound: O=C(O)c1cccc(NN=C2c3ccccc3-c3ccccc32)c1
- IC50 [16]: > 50 µM (not active)
- IC50 [17]: 50 µM (not active)
- IC50 [18]: 23.9 µM (active)
- AC50 [19]: 8.32 µM (active)

Compound: O=C1N[C@@H](Cc2ccccc2)[C@@H](c2ccco2)O1
- AC50 [20]: 7.07 µM (active)

Compound: O=C(NCc1ccccc1Br)c1cccs1
- Kd [21]: 39.3 µM (inactive)

Compound: O=C(O)c1ccc(N2C(=O)c3ccccc3C2=O)cc1
- IC50 [22]: > 100 µM (not active)
- IC50 [23]: > 100 µM (not active)
- IC50 [24]: > 100 µM (not active)
- IC50 [25]: > 100 µM (not active)
- IC50 [26]: > 100 µM (inactive)
- IC50 [27]: > 100 µM (inactive)
- IC50 [28]: > 100 µM (inactive)

Compound: CC(C)n1cnc2c(Nc3ccc(F)c(Cl)c3)nc(NCCO)nc21
- AC50 [29]: 3.36 µM (active)
